“And” between values parts separate entries of the source, which are not always exact repeats. Identical values can stand only once.
Legend:
[1] = tested on: Prostate specific antigen (PSA) secretion in LNCap.FGC cells; experiment: cells; settings: for PSA concentration: 48 hours
From the text: Prostate specific antigen (PSA) is a protein secreted by the […] cells of prostate. PSA facilitates semen liquification and presents in male serum in minute amount. In the serum of male subjects suffering from prostate cancer, benign prostatic hyperplasia or prostatic infection, the quantity of PSA presented in serum may increase. Therefore, PSA is so far the most valuable marker in screening and diagnosing prostate tumors. PSA also plays an important role in determining a cancer's stage of development and evaluating the effect of treatment. The amounts of PSA were determined by using Prostate Specific Antigen ELISA kit (Cat. No. BQ067T, Bio Quant, USA). […] 50 μl of each of the retrieved culture media and 50 μl of each of the standard PSA of 0, 2, 4, 8, 25, and 50 ng/ml were added to the wells of a 96-well plate, respectively. Then, 50 μl assay buffer was further added to the wells, and the plate was incubated at room temperature in the dark for 30 minutes. The supernatant was removed and the wells were washed three times with 300 μl wash buffer. […] The supernatant was removed and the wells and washed three times with 300 μl wash buffer. […] Within 15 minutes after completion of the previous step, the wells were examined by a ELISA Reader at 450 nm.

androgen receptor = androgen receptor (Homo sapiens, UniProt P10275); experiment: cell-based; assay type: cell-based
Sequence of androgen receptor (P10275 whole entry, looked up): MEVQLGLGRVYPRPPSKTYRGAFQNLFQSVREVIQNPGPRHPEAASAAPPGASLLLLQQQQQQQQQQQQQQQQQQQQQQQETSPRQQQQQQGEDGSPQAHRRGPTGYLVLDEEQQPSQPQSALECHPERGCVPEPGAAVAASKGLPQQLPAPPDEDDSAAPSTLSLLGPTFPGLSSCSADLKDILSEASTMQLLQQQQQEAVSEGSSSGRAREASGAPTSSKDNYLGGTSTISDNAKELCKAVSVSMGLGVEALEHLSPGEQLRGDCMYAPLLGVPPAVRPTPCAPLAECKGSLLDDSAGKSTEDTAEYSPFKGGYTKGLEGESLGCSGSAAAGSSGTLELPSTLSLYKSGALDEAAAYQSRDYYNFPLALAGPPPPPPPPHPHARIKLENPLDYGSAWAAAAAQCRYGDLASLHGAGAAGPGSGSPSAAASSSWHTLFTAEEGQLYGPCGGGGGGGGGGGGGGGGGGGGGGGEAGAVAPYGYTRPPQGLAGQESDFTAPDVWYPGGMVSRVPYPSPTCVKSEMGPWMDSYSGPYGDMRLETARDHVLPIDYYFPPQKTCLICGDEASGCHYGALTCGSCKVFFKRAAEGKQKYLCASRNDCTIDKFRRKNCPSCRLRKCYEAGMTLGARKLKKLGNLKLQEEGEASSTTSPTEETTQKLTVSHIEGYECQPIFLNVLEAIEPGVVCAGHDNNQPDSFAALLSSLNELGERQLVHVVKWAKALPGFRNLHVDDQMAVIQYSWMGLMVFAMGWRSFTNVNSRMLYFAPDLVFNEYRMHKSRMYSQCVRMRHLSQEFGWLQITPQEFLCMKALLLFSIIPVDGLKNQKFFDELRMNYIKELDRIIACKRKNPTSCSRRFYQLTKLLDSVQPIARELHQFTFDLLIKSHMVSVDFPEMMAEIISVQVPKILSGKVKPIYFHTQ
Protocol: Human MDA-MB-453 cells were used in this assay. The cells in the exponential phase of growth (cultured in RPMI 1640 medium (Gibco, USA), 10% FBS) were washed off with 1 ml of 0.05% trypsin, centrifuged and collected in a centrifuge tube. 1×10^7 cells were resuspended in 270 μl BES medium (5 mM BES in RPMI 1640 medium) and 8 to 10 μg of pPSA-SEAP2 plasmid (see FIG. 4) were also added to the medium.
25 μl of media were retrieved from each cell of the 96-well plate and heated in a 65° C. water bath for 30 minutes. The media were then treated by Phospha-Light™ assay system (Applied Biosystem) in order to detect the secreted alkaline phosphatase (SEAP) reporter protein. The intensity of luminescence was detected by Victor™ Light luminescence counter to determine the activity of the samples in the modulation of the androgen receptor.
Human MDA-MB-453 cells were used in this assay. The cells in the exponential phase of growth (cultured in RPMI 1640 medium (Gibco), 10% FBS) were washed off with 1 ml of 0.05% trypsin, centrifuged and collected in a centrifuge tube. 1×10^7 cells were resuspended in 270 μl BES medium (5 mM BES in RPMI 1640 medium) and 8 to 10 μg of pPSA-SEAP2 plasmid (see FIG. 4) were also added to the medium.

[2] = tested on: MRC-5, MCF-7, HepG2, AGS, HeLa, HEK 293 cells; settings: MTT, 72 hours, up to 20 μM
Protocol: (§1) The survive rate of cell was determined by the MTT (3-(4,5-dimethyl-2-thiazolyl)-2,5-diphenyl tetrazolium bromide) method.
(§2) The supernatant of the culture was removed.

LNCap.FGC cells = settings: MTT, 72 hours, up to 20 μM
Protocol: as §1, §2

Question: For C[C@]12CCC(=O)C[C@@H]1CC[C@@H]1[C@@H]2CC[C@]2(C)[C@@H](O)CC[C@@H]12 [DHT, 5α-dihydrotestosterone, reference compound], which PSA concentration ([1]; DHT 5 nM alone) is on record?
Answer: 12.61 ng/mL

Question: With C/C=C/C1=CC2=C(CO1)C(=O)[C@]1(C)OC(=O)[C@H](C(=O)CCCCCCC)[C@H]1C2 [ankaflavin] as the compound, how does the inhibition at 26 µM (androgen receptor; MDA-MB-453, read-out: inhibition of the reporter activity) read?
Answer: 41%

Question: For C/C=C/C1=CC2=C(CO1)C(=O)[C@]1(C)OC(=O)[C@H](C(=O)CCCCC)[C@H]1C2 [monascin], which “inhibition of the reporter activity” value (androgen receptor) is on record?
Answer: 55%

Question: For C/C=C/C1=CC2=C(CO1)C(=O)[C@]1(C)OC(=O)[C@H]([C@@H](O)CCCCC)[C@H]1C2 [monascuspiloin, (3S,3aR,9aR)-3a,4-dihydro-3-((S)-1-hydroxyhexyl)-9a-methyl-6-((E)-prop-1-enyl)-3H-furo [3,2-g]isochromene-2,9(8H,9aH)-dione], which PSA concentration ([1]; DHT 5 nM + Monascuspiloin 5 μM) is on record?
Answer: 10.27 ng/mL

Question: What about the PSA concentration ([1]; DHT 5 nM + Monascuspiloin 10 μM) of the same compound?
Answer: 9.71 ng/mL

Question: What about the PSA concentration ([1]; DHT 5 nM + Monascuspiloin 25 μM) of the same compound?
Answer: 8.77 ng/mL

Question: What about the inhibition at 20 µM ([1]; Homo sapiens, read-out: inhibition of the production of PSA induced by DHT) of the same compound?
Answer: 43%

Question: What about the “cytotoxic effect on the other 6 non-human-prostate-cancer cell lines” value [2] of the same compound?
Answer: does not have a significant cytotoxic effect

Question: And the “cytotoxic effect on LNCap.FGC” value (LNCap.FGC cells)?
Answer: does not have a significant cytotoxic effect

Question: And the IC50 (androgen receptor; read-out: IC50 for inhibition of the activation of the androgen receptor)?
Answer: ~12 µM and 12 µM

From patent US8957057B2 (priority 2009, dated 2015)
